The text below walks through data of PMC8531085, “Proton Pump Inhibitors Inhibit PHOSPHO1 Activity and Matrix Mineralisation In Vitro” (Calcified Tissue International, 2021).

In experiment [1] the target is T1, Recombinant human PHOSPHO1 (Homo sapiens, UniProt Q8TCT1).
T1 construct: made in house
T1 sequence (Q8TCT1 1-267): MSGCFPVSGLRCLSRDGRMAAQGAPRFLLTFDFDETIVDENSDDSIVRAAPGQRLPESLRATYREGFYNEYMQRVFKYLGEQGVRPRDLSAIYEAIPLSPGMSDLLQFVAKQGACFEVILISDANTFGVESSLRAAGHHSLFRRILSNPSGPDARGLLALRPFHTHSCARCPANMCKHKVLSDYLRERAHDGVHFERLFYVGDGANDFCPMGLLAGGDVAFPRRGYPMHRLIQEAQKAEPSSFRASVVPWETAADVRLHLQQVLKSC
Kind of experiment: PHOSPHO1 phosphatase assay (BIOMOL Green, β-glycerol phosphate). The format is biochemical. Particulars: for Inhibition of PHOSPHO1 activity (in words): all concentrations tested (0-100 µM); for IC50: recombinant human PHOSPHO1 50 ng, 0-100 µM, 2.5 mM β-glycerol phosphate, read-out: IC50, inhibition of PHOSPHO1 activity. Here is the method: Recombinant human PHOSPHO1 (50 ng) was generated as previously described and incubated with varying concentrations of the aforementioned PPIs and […] in experimental assay buffer (20 mM Tris, 2 mM MgCl2 & 25 μg/ml BSA) at 37 °C for 15 min. Using the BIOMOL® Green assay (Enzo, Exeter, UK), standards (0-2 nM) and samples were then incubated with 2.5 mM β-glycerol phosphate for 30 min at 37 °C with gentle agitation. The reaction was stopped using 100 μl BIOMOL® Green and after being left for 30 min at room temperature, the absorbance was read using spectrophotometry at 630 nm. […] Using the BIOMOL® Green assay, standards (0-2 nM) and samples were then incubated with 0.5 mM p-nitrophenyl phosphate (pNPP) for 30 min at 37 °C with gentle agitation. The reaction was stopped using 100 μl BIOMOL® Green and after being left for 30 min at room temperature, the absorbance was read using spectrophotometry at 630 nm.

Experiment [2] relates to Primary calvarial osteoblasts. Kind of experiment: Primary osteoblast matrix mineralisation (Alizarin red, 28 days). The class given is cell-based, mice. Here is the method:
Primary calvarial osteoblasts were obtained from 4-day-old wild-type C57Bl/6 mice. Primary osteoblasts were isolated by sequential enzyme digestion of excised calvarial bones using a four-step process as has previously been described [1 mg/ml collagenase type II in Hanks’ balanced salt solution (HBSS) for 10 min; 1 mg/ml collagenase type II in HBSS for 30 min; 4 mM EDTA for 10 min; 1 mg/ml collagenase type II in HBSS for 30 min]. The first digest was discarded and the cells were re-suspended in growth medium consisting of a-MEM (Invitrogen, Paisley, UK) supplemented with 10% (v/v) FBS and 1% gentamycin (Invitrogen). Osteoblasts were seeded at a density of 1 × 10^4 cells/cm^2 and grown to confluency at which point 2 mM β-glycerophosphate and 50 µg/ml ascorbic acid was added along with a PPI (0–50 µM) as described in the results. Media was changed every 2–3 days for the duration of the 28-day experiments. After 28 days, primary cell cultures were fixed in 4% paraformaldehyde for 5 min at room temperature. Cell monolayers were stained with aqueous 2% (w/v) Alizarin red solution for 5 min at room temperature. The bound stain was solubilised in 10% cetylpyridinium chloride and the optical density of the resultant eluted solution measured by spectrophotometry at 570 nm.

Experiment [3] addresses T2, recombinant human TNAP (Homo sapiens, UniProt P05186).
T2 construct: purchased R&D Systems
T2 sequence (P05186 18-524): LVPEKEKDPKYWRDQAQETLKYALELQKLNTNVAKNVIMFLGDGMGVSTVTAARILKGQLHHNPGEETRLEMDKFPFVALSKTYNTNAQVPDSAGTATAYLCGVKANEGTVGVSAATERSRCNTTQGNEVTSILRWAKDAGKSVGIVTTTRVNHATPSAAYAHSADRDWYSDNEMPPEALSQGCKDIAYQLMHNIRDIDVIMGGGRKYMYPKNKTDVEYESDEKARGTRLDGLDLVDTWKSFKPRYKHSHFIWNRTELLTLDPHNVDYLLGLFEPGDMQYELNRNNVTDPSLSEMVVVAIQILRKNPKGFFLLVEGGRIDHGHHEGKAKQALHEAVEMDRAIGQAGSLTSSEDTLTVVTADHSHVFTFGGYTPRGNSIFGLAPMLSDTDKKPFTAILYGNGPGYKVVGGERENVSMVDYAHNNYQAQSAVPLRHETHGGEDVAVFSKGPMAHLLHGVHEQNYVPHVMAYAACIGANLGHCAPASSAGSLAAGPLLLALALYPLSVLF
Briefly: TNAP phosphatase assay (BIOMOL Green, pNPP). The format is biochemical. Particulars: all concentrations tested (0-100 µM). Here is the method: Recombinant human PHOSPHO1 (50 ng) was generated as previously described and incubated with varying concentrations of the aforementioned PPIs and H2RAs in experimental assay buffer (20 mM Tris, 2 mM MgCl2 & 25 µg/ml BSA) at 37 °C for 15 min. Using the BIOMOL® Green assay (Enzo, Exeter, UK), standards (0-2 nM) and samples were then incubated with 2.5 mM β-glycerol phosphate for 30 min at 37 °C with gentle agitation. The reaction was stopped using 100 µl BIOMOL® Green and after being left for 30 min at room temperature, the absorbance was read using spectrophotometry at 630 nm. For TNAP, 2 ng recombinant human TNAP (R&D Systems, Abington, UK), was incubated with varying concentrations of the aforementioned PPIs and H2RAs in experimental assay buffer (1 M diethylamine hydrochloride, 1 mM MgCl2 and 20 µM ZnCl2). Using the BIOMOL® Green assay, standards (0-2 nM) and samples were then incubated with 0.5 mM p-nitrophenyl phosphate (pNPP) for 30 min at 37 °C with gentle agitation. The reaction was stopped using 100 µl BIOMOL® Green and after being left for 30 min at room temperature, the absorbance was read using spectrophotometry at 630 nm.

In experiment [4] the test system is osteoblasts. More on the design: method as in PMID 23937530. The note with it: cited from earlier work.
The test system of experiment [5] is osteoblast MV. Particulars: cited from earlier work.
For experiment [6], the target named is T1, Recombinant human PHOSPHO1. More on the design: method as in PMID 17227223. Particulars: non-competitive; cited from earlier work.
The test system of experiment [7] is developing chick embryos. More on the design: method as in PMID 20053388. Particulars: administration to developing chick embryos; cited from earlier work.
Experiment [8] relates to tissue non-specific alkaline phosphatase (TNAP). Also on record: method as in PMID 17227223. The note with it: cited from earlier work.
Experiment [9] relates to rodents. More on the design: method as in PMID 11589371, PMID 26229922. Particulars: rodents administered the drug; cited from earlier work.
Experiment [10] deals with healthy subjects. Particulars: short-term treatment; cited from earlier work.

Values joined by “and” are separate entries in the source; they are usually repeats but may differ in a detail not shown here. Equal values may be shown once. “Also recorded” adds a separate entry of the source.

Broadly, the IC50 is the concentration that gives 50% inhibition.

As for `CNC(=C[N+](=O)[O-])NCCSCc1ccc(CN(C)C)o1` [ranitidine], the “Inhibition of PHOSPHO1 activity (in words)” value in experiment [1] is “no inhibitory effects; also recorded: no inhibition”.
Still for that read-out and setting: the value for `NC(N)=Nc1nc(CSCCC(N)=NS(N)(=O)=O)cs1` [famotidine] was “no inhibitory effects; also recorded: no inhibition”.
Regarding `COc1ccc2nc([S@@+]([O-])Cc3ncc(C)c(OC)c3C)[nH]c2c1` [esomeprazole], the “Matrix mineralisation (Alizarin red)” value in experiment [2] (10 µM) is listed as “significantly inhibited matrix mineralisation”. The IC50 in experiment [1] is 730 nM and 726 nM. In experiment [3], the “Inhibition of TNAP activity (in words)” value is given as “did not inhibit”. The “Ability of osteoblasts to mineralise their matrix” value (from here on “Ability of osteoblasts”) in experiment [4] is listed as “decreased the ability of osteoblasts to mineralise their matrix”.
Consider `CNC(=C[N+](=O)[O-])NCCSCc1csc(CN(C)C)n1` [nizatidine], for which the “Inhibition of PHOSPHO1 activity (in words)” value in [1] was “no inhibitory effects; also recorded: no inhibition”.
Regarding `Cc1c(OCC(F)(F)F)ccnc1C[S+]([O-])c1nc2ccccc2[nH]1` (centres unmarked) [lansoprazole], in experiment [2] (5 µM), the “Matrix mineralisation (Alizarin red)” value is recorded as “significantly decreased matrix mineralisation”. Also, the “Matrix mineralisation (Alizarin red)” value in experiment [2] (10 µM) is “significantly decreased matrix mineralisation”. For the same compound, in [5], the “Inhibition of osteoblast MV calcification” value is 57% and the “Mineralisation of MVs isolated from osteoblasts” value is “impairs their mineralisation”. Moreover, the “Inhibition of recombinant human PHOSPHO1 activity” value in [6] was “over 70%”. In experiment [1], the IC50 is 2770 nM. The “Mineralisation of leg and wing long bones” value in experiment [7] was “completely inhibited mineralisation”. In addition, the “Inhibition of TNAP activity (in words)” value in experiment [3] is “did not inhibit”. Further, in [8], the “Effect on TNAP activity” value is given as “no effect”. In addition, the “Ability of osteoblasts” value in [4] was “decreased the ability of osteoblasts to mineralise their matrix”.
As to `COc1ccnc(C[S+]([O-])c2nc3ccc(OC(F)F)cc3[nH]2)c1OC` (centres unmarked) [pantoprazole], the “Matrix mineralisation (Alizarin red)” value in [2] (5 µM) is on record as “not sufficient to inhibit matrix mineralisation”; in experiment [2] (10 µM) it was “not sufficient to inhibit matrix mineralisation”; in [2] (50 µM) it was “significant decrease in matrix mineralisation”. For the same compound, the IC50 in [1] turned out to be 19300 nM. Moreover, the “Inhibition of TNAP activity (in words)” value in experiment [3] was “did not inhibit”.
Consider `COc1ccc2[nH]c([S+]([O-])Cc3ncc(C)c(OC)c3C)nc2c1` (centres unmarked) [omeprazole], for which the “Bone mineral content and BMD” value in [9] was “reduced bone mineral content and BMD”. Besides, the “Matrix mineralisation (Alizarin red)” value in experiment [2] (10 µM) is “significantly inhibited matrix mineralisation”. The “Effect on calcium absorption” value in experiment [10] is given as “not found to have inhibitory effects”. Besides, in [1], the IC50 amounted to 2800 nM. Besides, the “Inhibition of TNAP activity (in words)” value in experiment [3] is listed as “did not inhibit”. Also, the “Ability of osteoblasts” value in [4] is “decreased the ability of osteoblasts to mineralise their matrix”.
For `CN/C(=N/CCSCc1nc[nH]c1C)NC#N` [cimetidine], the “Inhibition of PHOSPHO1 activity (in words)” value in [1] was “no inhibitory effects; also recorded: no inhibition”.
